Reference: patent publication US12589156B2, “Benzimidazole and benzimidazolone based protac compounds for the targeted degradation of leucine rich repeat kinase 2 (LRRK2)” (Arvinas Operations, Inc., priority 2023, dated 2026)

Target: T1, WT LRRK2 (Homo sapiens, UniProt Q5S007)
T1 construct: endogenous in cells; host or cells: HEK293 (endogenous LRRK2 gene knock-in tagged with HiBit; stably expressing CMV-driven firefly luciferase)
Experiment: LRRK2 HiBit degradation assay (Nano-Glo Dual Luciferase) in HEK293 cells with HiBit-tagged endogenous LRRK2
Type: cell-based
Conditions: HiBit-tagged LRRK2 in HEK293 cells, 24 hours treatment; for Dmax: maximal degradation; for DC50: starting concentration 1 μM
Excerpt: Biological Assays Exemplary Assay for Testing LRRK2 Degradation Driven by Exemplary Hetero-Bifunctional Compounds Designed to Target LRRK2
The assay measures the degradation of LRRK2 in cells where the C-terminus (3′) of the endogenous gene has been tagged with a HiBit sequence in HEK293 cells. The cells also express firefly lucisferase, expressed from a Cytomegalovirus promoter and introduced into the HiBit tagged cells and stably expressed. The Nano-Glo® Dual Luciferase Reporter Assay System (Promega™, Madison, WI) was utilized.
Day 1—Preparation of Compound and Assay Plates. Two sets of plates were prepared: a triplicate set for the HiBit assay in white 384-well plates and a triplicate set of plate in black 384-well plates for the Alamar Blue cell viability assay. Briefly, the growth media (DMEM+Glutamax-10% fetal bovine serum-1% Penicillin-Streptomicin) from two T128 flasks was aspirated from the flasks. Cells were washed with Dulbecco's Phosphate Buffered Saline (dPBS) and aspirated. Trypsin (3 mL per flask) was added and the flasks were incubated for 2-3 minutes.
Ten mL of OptiMEM—10% fetal bovine-1% penicillin-streptomycin (hereinafter, “OptiMEM media”) was added to the flask and the cells and transferred to a 50 ml conical tube. A cell count (25 ul of cell into Effendorf vial+25 ul of Trypan Blue Stain) was performed and the cell density adjusted to 15,000 cell/45 μl/well (3.33×10^5/mL) in OptiMEM media.
Forty-five microliters of the cell suspension (15,000 cells) was aliquoted to each well of the white 384-well plate. The plates incubated at room temperature for 10 minutes before being placed in the 37° C.+5% CO2 incubator overnight
Day 2—Compound Treatment. Exemplary compounds were prepared at a 1 mM starting concentration and 1:3 serial dilution for 11 points CRC prepared and stored in the freezer. The Master Compound Plate was thawed overnight at room temperature. DMSO (20 μL) was added into column 24 of the Master Compound Plate for negative control and 20 μL of 300 μM of Compound 4 in column 23 as positive control.
Intermediate Compound Plate with 4% DMSO in OptiMEM Media. DMSO was added to warm OptiMEM media to achieve a 4% DMSO solution (approximately 50 mL/plate). One-hundred microliters of the OptiMEM-4% DMSO was aliquoted to each well of 384-Well Deep Well Microplates.
The Master Compound Plate and the Intermediate Compound Plate were spun down.
One microliter of compound from the Master Compound Plate was transferred into the Intermediate plate (a 1:100 dilution). The diluted mixture was mixed and 5 μL transferred into the assay plate (a 1:10 dilution) for the final starting concentration of 1 μM. The Treated Assay plates were incubated for 24 hours at 37° C.+5% CO2. The Master Compound Plate was sealed and store at room temperature for a second run that was performed within a week.
One set of white assay plates was warmed to room temperature (45 minute).
The One Glo luciferase mixture was prepared. The media from white 384-well assay plates was aspirated. Twenty-five μL of the One Glo luciferase mixture was added to each well of the assay plates. The plates were incubated on the bench (room temperature) for 45 minutes, including 10 minutes of shaking at 700 rpm. The luminescence of each plate was read on a plate reader.
1:100 DLR substrate and 1:100 LgBiT Protein dilution were added to the Promega Stop and Glo buffer and mixed just before addition to assay plates. Twenty-five microliters of Stop and Glo mixture was added to each well. Assay plates incubated for at least 45 minutes, including 10 minutes of shaking at 700 rpm. The luminescence of each plate was read on a plate reader.
Analysis of LRRK2 HiBit Screening assays. As mentioned above, plates were run in triplicate and the assay repeated twice (total of 6 replicate for exemplary compounds). For each treatment, measurements were taken for firefly luciferase for cell number, cell viability (Alamar Blue), and Nanoluc for the LRRK2-HiBit quantification. […]

T1 sequence (Q5S007 whole entry): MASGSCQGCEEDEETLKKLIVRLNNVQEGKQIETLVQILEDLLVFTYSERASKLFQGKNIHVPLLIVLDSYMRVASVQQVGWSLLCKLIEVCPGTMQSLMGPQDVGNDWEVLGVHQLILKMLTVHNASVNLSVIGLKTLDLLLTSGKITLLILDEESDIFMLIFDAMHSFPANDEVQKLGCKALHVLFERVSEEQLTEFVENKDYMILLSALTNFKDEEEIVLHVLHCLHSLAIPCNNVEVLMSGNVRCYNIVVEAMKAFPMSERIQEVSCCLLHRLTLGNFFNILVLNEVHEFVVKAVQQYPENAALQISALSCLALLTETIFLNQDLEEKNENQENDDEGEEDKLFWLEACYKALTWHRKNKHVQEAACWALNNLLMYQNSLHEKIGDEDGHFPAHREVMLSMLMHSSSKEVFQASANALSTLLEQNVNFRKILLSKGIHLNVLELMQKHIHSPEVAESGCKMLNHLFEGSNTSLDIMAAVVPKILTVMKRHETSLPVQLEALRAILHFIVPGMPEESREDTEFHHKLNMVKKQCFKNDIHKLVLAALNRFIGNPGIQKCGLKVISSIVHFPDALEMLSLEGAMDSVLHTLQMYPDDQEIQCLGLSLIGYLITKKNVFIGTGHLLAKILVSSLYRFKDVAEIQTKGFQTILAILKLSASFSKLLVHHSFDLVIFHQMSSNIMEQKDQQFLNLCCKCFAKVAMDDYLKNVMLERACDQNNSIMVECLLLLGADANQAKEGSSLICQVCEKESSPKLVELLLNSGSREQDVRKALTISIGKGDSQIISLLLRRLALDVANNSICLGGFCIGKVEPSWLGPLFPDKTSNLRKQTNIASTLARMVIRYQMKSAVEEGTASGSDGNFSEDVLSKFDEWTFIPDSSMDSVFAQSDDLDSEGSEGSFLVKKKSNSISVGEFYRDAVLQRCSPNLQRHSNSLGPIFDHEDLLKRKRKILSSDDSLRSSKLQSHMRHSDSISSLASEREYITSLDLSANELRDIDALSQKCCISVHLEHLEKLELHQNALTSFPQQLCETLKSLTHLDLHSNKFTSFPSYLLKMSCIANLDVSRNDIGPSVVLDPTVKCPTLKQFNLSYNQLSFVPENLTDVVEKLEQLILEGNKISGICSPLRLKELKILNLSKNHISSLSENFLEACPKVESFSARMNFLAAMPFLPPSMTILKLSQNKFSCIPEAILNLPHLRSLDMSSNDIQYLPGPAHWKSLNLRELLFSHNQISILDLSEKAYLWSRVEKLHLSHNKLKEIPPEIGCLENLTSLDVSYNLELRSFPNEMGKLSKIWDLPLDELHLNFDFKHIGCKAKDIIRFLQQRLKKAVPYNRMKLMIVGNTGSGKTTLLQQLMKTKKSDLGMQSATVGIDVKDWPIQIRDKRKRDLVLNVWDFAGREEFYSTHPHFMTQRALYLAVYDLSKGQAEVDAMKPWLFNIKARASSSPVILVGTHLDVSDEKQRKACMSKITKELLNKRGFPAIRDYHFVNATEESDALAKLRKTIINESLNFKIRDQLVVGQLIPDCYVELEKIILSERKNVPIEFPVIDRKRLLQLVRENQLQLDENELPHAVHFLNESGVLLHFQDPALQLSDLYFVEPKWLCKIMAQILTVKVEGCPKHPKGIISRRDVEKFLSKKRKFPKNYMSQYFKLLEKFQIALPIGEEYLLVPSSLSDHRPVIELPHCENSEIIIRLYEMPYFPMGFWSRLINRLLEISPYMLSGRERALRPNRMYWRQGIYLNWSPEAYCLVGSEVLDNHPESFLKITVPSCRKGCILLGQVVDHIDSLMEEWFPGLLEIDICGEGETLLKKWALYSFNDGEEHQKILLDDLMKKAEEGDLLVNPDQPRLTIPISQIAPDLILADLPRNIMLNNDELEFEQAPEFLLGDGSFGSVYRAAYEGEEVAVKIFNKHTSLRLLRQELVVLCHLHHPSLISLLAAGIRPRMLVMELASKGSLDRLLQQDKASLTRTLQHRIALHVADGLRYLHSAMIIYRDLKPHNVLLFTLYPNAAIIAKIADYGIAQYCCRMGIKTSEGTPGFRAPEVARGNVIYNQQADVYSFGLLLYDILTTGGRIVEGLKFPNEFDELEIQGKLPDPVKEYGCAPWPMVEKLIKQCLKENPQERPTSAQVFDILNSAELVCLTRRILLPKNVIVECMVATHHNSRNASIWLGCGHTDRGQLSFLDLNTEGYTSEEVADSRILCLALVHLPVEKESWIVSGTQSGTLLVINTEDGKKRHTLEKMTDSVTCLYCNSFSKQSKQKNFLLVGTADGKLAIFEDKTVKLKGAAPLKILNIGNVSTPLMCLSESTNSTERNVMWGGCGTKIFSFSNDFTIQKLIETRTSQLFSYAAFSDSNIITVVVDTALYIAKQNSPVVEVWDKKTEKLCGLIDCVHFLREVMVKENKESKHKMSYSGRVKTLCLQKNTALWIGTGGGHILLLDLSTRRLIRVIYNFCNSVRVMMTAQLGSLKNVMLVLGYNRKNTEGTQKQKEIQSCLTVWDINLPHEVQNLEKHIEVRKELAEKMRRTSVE

Row | Dmax (HEK293, Table 2) [%] | Compound | DC50 (Table 2) [nM] | Dmax (Table 2) [%]
1 | 40 | CC(C)Oc1cc2c(-c3cc(N4CCN(C[C@H]5CC[C@H](OC6CCN(c7ccc8c(c7)n(C)c(=O)n8C7CCC(=O)NC7=O)CC6)CC5)CC4)ncn3)n[nH]c2cn1 (single isomer, unassigned) [Compound 20, rel-3-[3-methyl-2-oxo-5-(4-{[(1r,4r)-4-[(4-{6-[5-(propan-2-yloxy)-1H-pyrazolo[3,4-c]pyridin-3-yl]pyrimidin-4-yl}piperazin-1-yl)methyl]cyclohexyl]oxy}piperidin-1-yl)-2,3-dihydro-1H-1,3-benzodiazol-1-yl]piperidine-2,6-dione] | 0.56 | 
2 |  | COc1cc2c(-c3cc(N4CCN(C[C@H]5CC[C@H](OC6CCN(c7ccc8c(c7)n(C)c(=O)n8C7CCC(=O)NC7=O)CC6)CC5)CC4)ncn3)n[nH]c2cn1 (single isomer, unassigned) [Compound 21, rel-3-[3-methyl-2-oxo-5-(4-{[(1r,4r)-4-{[4-(6-{5-methoxy-1H-pyrazolo[3,4-c]pyridin-3-yl}pyrimidin-4-yl)piperazin-1-yl]methyl}cyclohexyl]oxy}piperidin-1-yl)-2,3-dihydro-1H-1,3-benzodiazol-1-yl]piperidine-2,6-dione] | ≥ 1000 | 
3 | 46 | Cn1c(=O)n(C2CCC(=O)NC2=O)c2ccc(N3CCC(O[C@H]4CC[C@H](CN5CCN(c6cc(-c7n[nH]c8cnc(C9(C#N)CCC9)cc78)ncn6)CC5)CC4)CC3)cc21 (single isomer, unassigned) [Compound 22, rel-1-{3-[6-(4-{[(1r,4r)-4-({1-[1-(2,6-dioxopiperidin-3-yl)-3-methyl-2-oxo-2,3-dihydro-1H-1,3-benzodiazol-5-yl]piperidin-4-yl}oxy)cyclohexyl]methyl}piperazin-1-yl)pyrimidin-4-yl]-1H-pyrazolo[3,4-c]pyridin-5-yl}cyclobutane-1-carbonitrile] | 0.14 | 
4 | 45 | Cn1c(=O)n(C2CCC(=O)NC2=O)c2ccc(N3CCC(O[C@H]4CC[C@H](CN5CCN(c6cc(-c7n[nH]c8cnc(C9(C#N)CC9)cc78)ncn6)CC5)CC4)CC3)cc21 (single isomer, unassigned) [Compound 23, rel-1-{3-[6-(4-{[(1r,4r)-4-({1-[1-(2,6-dioxopiperidin-3-yl)-3-methyl-2-oxo-2,3-dihydro-1H-1,3-benzodiazol-5-yl]piperidin-4-yl}oxy)cyclohexyl]methyl}piperazin-1-yl)pyrimidin-4-yl]-1H-pyrazolo[3,4-c]pyridin-5-yl}cyclopropane-1-carbonitrile] | 0.56 | 
5 | 49 | Cn1c(=O)n(C2CCC(=O)NC2=O)c2ccc(N3CCC(O[C@H]4CC[C@H](CN5CCN(c6cc(-c7n[nH]c8cnc(C9(C#N)CC%10(CC%10)C9)cc78)ncn6)CC5)CC4)CC3)cc21 (single isomer, unassigned) [Compound 24, rel-5-{3-[6-(4-{[(1r,4r)-4-({1-[1-(2,6-dioxopiperidin-3-yl)-3-methyl-2-oxo-2,3-dihydro-1H-1,3-benzodiazol-5-yl]piperidin-4-yl}oxy)cyclohexyl]methyl}piperazin-1-yl)pyrimidin-4-yl]-1H-pyrazolo[3,4-c]pyridin-5-yl}spiro[2.3]hexane-5-carbonitrile] | 0.46 | 
6 | 57 | CC(C)Oc1ccc2[nH]nc(-c3cc(N4CCC(O[C@H]5CC[C@H](OC6CCN(c7ccc8c(c7)n(C)c(=O)n8C7CCC(=O)NC7=O)CC6)CC5)CC4)ncn3)c2c1 (single isomer, unassigned) [Compound 27, rel-3-[3-methyl-2-oxo-5-(4-{[(1r,4r)-4-[(1-{6-[5-(propan-2-yloxy)-1H-indazol-3-yl]pyrimidin-4-yl}piperidin-4-yl)oxy]cyclohexyl]oxy}piperidin-1-yl)-2,3-dihydro-1H-1,3-benzodiazol-1-yl]piperidine-2,6-dione] | 0.25 | 
7 |  | Cn1c(=O)n(C2CCC(=O)NC2=O)c2ccc(N3CCC(O[C@H]4C[C@H](OC5CCN(c6cc(-c7n[nH]c8ccc(OC9(C)CC9)cc78)ncn6)CC5)C4)CC3)cc21 (single isomer, unassigned) [Compound 29, rel-3-(3-methyl-2-oxo-5-{4-[(1r,3r)-3-[(1-{6-[5-(1-methylcyclopropoxy)-1H-indazol-3-yl]pyrimidin-4-yl}piperidin-4-yl)oxy]cyclobutoxy]piperidin-1-yl}-2,3-dihydro-1H-1,3-benzodiazol-1-yl)piperidine-2,6-dione] | 0.16 | 54
8 |  | Cn1c(=O)n(C2CCC(=O)NC2=O)c2ccc(N3CCC(O[C@H]4C[C@H](OC5CCN(c6cc(-c7n[nH]c8cnc(OC9(C)CC9)cc78)ncn6)CC5)C4)CC3)cc21 (single isomer, unassigned) [Compound 30, rel-3-(3-methyl-2-oxo-5-{4-[(1r,3r)-3-[(1-{6-[5-(1-methylcyclopropoxy)-1H-pyrazolo[3,4-c]pyridin-3-yl]pyrimidin-4-yl}piperidin-4-yl)oxy]cyclobutoxy]piperidin-1-yl}-2,3-dihydro-1H-1,3-benzodiazol-1-yl)piperidine-2,6-dione] | 0.065 | 48
9 |  | CC(C)Oc1cc2c(-c3cc(N4CCC(O[C@H]5C[C@H](OC6CCN(c7ccc8c(c7)n(C)c(=O)n8C7CCC(=O)NC7=O)CC6)C5)CC4)ncn3)n[nH]c2cn1 (single isomer, unassigned) [Compound 31, rel-3-(3-methyl-2-oxo-5-{4-[(1r,3r)-3-[(1-{6-[5-(propan-2-yloxy)-1H-pyrazolo[3,4-c]pyridin-3-yl]pyrimidin-4-yl}piperidin-4-yl)oxy]cyclobutoxy]piperidin-1-yl}-2,3-dihydro-1H-1,3-benzodiazol-1-yl)piperidine-2,6-dione] | 160 | 61
10 |  | Cn1c(=O)n(C2CCC(=O)NC2=O)c2ccc(N3CCC(OC[C@H]4C[C@H](OC5CCN(c6cc(-c7n[nH]c8cnc(OC9(C)CC9)cc78)ncn6)CC5)C4)CC3)cc21 (single isomer, unassigned) [Compound 32, rel-3-[3-methyl-2-oxo-5-(4-{[(1r,3r)-3-[(1-{6-[5-(1-methylcyclopropoxy)-1H-pyrazolo[3,4-c]pyridin-3-yl]pyrimidin-4-yl}piperidin-4-yl)oxy]cyclobutyl]methoxy}piperidin-1-yl)-2,3-dihydro-1H-1,3-benzodiazol-1-yl]piperidine-2,6-dione] | 0.33 | 51
11 |  | Cn1c(=O)n(C2CCC(=O)NC2=O)c2ccc(N3CCC(OC[C@H]4C[C@H](OC5CCN(c6cc(-c7n[nH]c8ccc(OC9(C)CC9)cc78)ncn6)CC5)C4)CC3)cc21 (single isomer, unassigned) [Compound 33, rel-3-[3-methyl-2-oxo-5-(4-{[(1r,3r)-3-[(1-{6-[5-(1-methylcyclopropoxy)-1H-indazol-3-yl]pyrimidin-4-yl}piperidin-4-yl)oxy]cyclobutyl]methoxy}piperidin-1-yl)-2,3-dihydro-1H-1,3-benzodiazol-1-yl]piperidine-2,6-dione] | 0.14 | 62

Row | Compound | Dmax (HEK293, Table 2) [%] | DC50 (Table 2) [nM] | Dmax (Table 2) [%]
12 | Cn1c(=O)n(C2CCC(=O)NC2=O)c2ccc(N3CCC(O[C@H]4CC[C@H](CN5CCN(c6cc(-c7n[nH]c8cnc(OC(C)(C)C)cc78)ncn6)CC5)CC4)CC3)cc21 (single isomer, unassigned) [Compound 19, rel-3-[3-methyl-2-oxo-5-(4-{[(1r,4r)-4-[(4-{6-[5-(tert-butoxy)-1H-pyrazolo[3,4-c]pyridin-3-yl]pyrimidin-4-yl}piperazin-1-yl)methyl]cyclohexyl]oxy}piperidin-1-yl)-2,3-dihydro-1H-1,3-benzodiazol-1-yl]piperidine-2,6-dione] | 76 | 28 | 
